Measured values published in ChEMBL document CHEMBL1142249, “Identification and optimization of a novel series of [2.2.1]-oxabicyclo imide-based androgen receptor antagonists” (Bioorg Med Chem Lett, 2008).

Assays:
Androgen receptor [1] = molecular target: T1, Androgen receptor (Homo sapiens, UniProt P10275); assay: Displacement of [3H]DHT from human androgen receptor in MDA453 cells
T1 sequence (P10275 whole entry): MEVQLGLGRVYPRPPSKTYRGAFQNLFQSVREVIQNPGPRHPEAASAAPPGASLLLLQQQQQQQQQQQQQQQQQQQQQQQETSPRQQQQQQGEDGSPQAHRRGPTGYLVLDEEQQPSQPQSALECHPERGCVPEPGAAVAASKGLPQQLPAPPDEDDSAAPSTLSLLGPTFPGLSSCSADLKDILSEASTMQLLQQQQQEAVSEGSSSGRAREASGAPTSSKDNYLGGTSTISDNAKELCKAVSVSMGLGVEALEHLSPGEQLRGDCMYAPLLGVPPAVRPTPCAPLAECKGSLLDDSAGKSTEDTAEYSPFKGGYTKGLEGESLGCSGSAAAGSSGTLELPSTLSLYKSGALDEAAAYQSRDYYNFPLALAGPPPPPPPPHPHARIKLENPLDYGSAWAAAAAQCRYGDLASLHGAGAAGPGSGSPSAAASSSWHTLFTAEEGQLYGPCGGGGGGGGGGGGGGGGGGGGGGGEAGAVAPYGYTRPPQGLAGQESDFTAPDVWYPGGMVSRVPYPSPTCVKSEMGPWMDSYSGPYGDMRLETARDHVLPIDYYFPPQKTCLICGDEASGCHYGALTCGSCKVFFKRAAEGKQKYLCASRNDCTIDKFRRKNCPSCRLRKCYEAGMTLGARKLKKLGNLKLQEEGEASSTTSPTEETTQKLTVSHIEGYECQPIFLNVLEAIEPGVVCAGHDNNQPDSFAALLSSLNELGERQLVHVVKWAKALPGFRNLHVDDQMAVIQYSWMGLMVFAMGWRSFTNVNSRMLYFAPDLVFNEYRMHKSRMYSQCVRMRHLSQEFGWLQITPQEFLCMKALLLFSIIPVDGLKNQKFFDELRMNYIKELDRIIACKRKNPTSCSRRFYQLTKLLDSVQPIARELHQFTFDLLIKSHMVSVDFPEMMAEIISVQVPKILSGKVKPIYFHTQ

Androgen receptor [2] = molecular target: T1, Androgen receptor
Description: Antagonist activity at human androgen receptor in MDA453 cells by alkaline phosphatase reporter gene assay

Liver microsomes = assay: Metabolic stability in human liver microsome assessed per milligram of protein; assay type: ADME
[3] = Cmax in BALB/c mouse at 1.0 mmol/kg, po; assay type: ADME, organism-based; design: dose 1 mmol/kg, route oral; details: in vivo
[4] = Tmax in BALB/c mouse at 1.0 mmol/kg, po; assay type: ADME, organism-based; details: in vivo
[5] = AUC (0 to 6 hrs) in BALB/c mouse at 1.0 mmol/kg, po; assay type: ADME, organism-based; design: dose 1 mmol/kg, time < 6 hr, route oral; details: plasma
[6] = Drug level in human CWR22R cells xenografted mouse plasma at 90 mg/kg, po after 24 hrs on day 60; assay type: ADME, organism-based; design: dose 90 mg/kg, route oral; details: read-out: Drug uptake
[7] = Drug level in human CWR22R cells xenografted mouse plasma at 10 mg/kg, po after 1 hr on day 60; assay type: ADME, organism-based; design: dose 10 mg/kg, route oral; details: read-out: Drug uptake
[8] = Drug level in human CWR22R cells xenografted mouse plasma at 10 mg/kg, po after 24 hrs on day 60; assay type: ADME, organism-based; design: dose 10 mg/kg, route oral; details: read-out: Drug uptake
[9] = Drug level in human CWR22R cells xenografted mouse plasma at 90 mg/kg, po after 1 hr on day 60; assay type: ADME, organism-based; design: dose 90 mg/kg, route oral; details: read-out: Drug uptake
[10] = Drug level in human CWR22R cells xenografted mouse plasma at 50 mg/kg, po after 24 hrs on day 60; assay type: ADME, organism-based; design: dose 50 mg/kg, route oral; details: read-out: Drug uptake
[11] = Drug level in human CWR22R cells xenografted mouse plasma at 50 mg/kg, po after 1 hr on day 60; assay type: ADME, organism-based; design: dose 50 mg/kg, route oral; details: read-out: Drug uptake

| SMILES | Ki (Androgen receptor [1]) [µM] | IC50 (Androgen receptor [2]) [µM] | also measured |
| --- | --- | --- | --- |
| Cc1ccc(N2C(=O)[C@@H]3C4CCC(O4)[C@@H]3C2=O)cc1Cl | 0.486 | 2.29 | – |
| CC12CCC(O1)[C@H]1C(=O)N(c3cccc(C(F)(F)F)c3)C(=O)[C@H]12 (some centres undefined) | 0.41 | 0.343 | – |
| CC12CCC(C)(O1)[C@H]1C(=O)N(c3ccc(C#N)c(I)c3)C(=O)[C@H]12 | 0.001 | 0.007 | Stability (Liver microsomes): 0.8 mmol/min/mg |
| O=C1[C@@H]2C3CCC(O3)[C@@H]2C(=O)N1c1ccc([N+](=O)[O-])c2ccccc12 | 0.003 | > 5 | Cmax [3]: 100 µM; Tmax [4]: 30 min; AUC(0-t) at 6 h [5]: 11.4 µM·h |
| Cc1cc(N2C(=O)[C@@H]3C4CCC(O4)[C@@H]3C2=O)ccc1Cl | 0.077 | 0.5 | – |
| O=C1[C@@H]2C3CCC(O3)[C@@H]2C(=O)N1c1cccc(C(F)(F)F)c1 | 4.1 | 11.5 | – |
| CC12C[C@H](O)C(C)(O1)[C@@H]1C(=O)N(c3ccc(C#N)c(I)c3)C(=O)[C@@H]12 (some centres undefined) | 0.00718 | 0.01 | concentration at 24 h [6]: 23.6 µM; concentration at 1 h [7]: 26 µM; Stability (Liver microsomes): 0.001 mmol/min/mg; concentration at 24 h [8]: 8 µM; concentration at 1 h [9]: 55.5 µM |
| CC(O)(CS(=O)(=O)c1ccc(F)cc1)C(=O)Nc1ccc(C#N)c(C(F)(F)F)c1 (centres undefined) [BICALUTAMIDE] | – | – | Cmax [3]: 110 µM; concentration at 24 h [10]: 86 µM; Tmax [4]: 30 min; concentration at 1 h [11]: 48.5 µM; AUC(0-t) at 6 h [5]: 786 µM·h |
| CC12CCC(C)(O1)[C@H]1C(=O)N(c3cc(Cl)cc(Cl)c3)C(=O)[C@H]12 | 0.003 | 0.016 | – |
| CC12CCC(C)(O1)[C@H]1C(=O)N(c3ccc(C#N)c4nsnc34)C(=O)[C@H]12 | 0.003 | 0.016 | – |
| CC12CCC(C)(O1)[C@H]1C(=O)N(c3ccc(C#N)n4nccc34)C(=O)[C@H]12 | 0.018 | 0.088 | – |
| O=C1[C@@H]2C3CCC(O3)[C@@H]2C(=O)N1c1ccc(Cl)c(C(F)(F)F)c1 | 1.11 | 3.31 | – |
| N#Cc1ccc(N2C(=O)[C@@H]3C4CCC(O4)[C@@H]3C2=O)cc1C(F)(F)F | 1.17 | 2.86 | – |
| O=C1[C@@H]2C3CCC(C3)[C@@H]2C(=O)N1c1cccc(C(F)(F)F)c1 | 0.36 | 0.152 | Cmax [3]: 0.023 µM; Tmax [4]: 30 min; AUC(0-t) at 6 h [5]: 0.056 µM·h |
| O=C1[C@@H]2C3CCC(O3)[C@@H]2C(=O)N1c1ccc(Cl)c(Cl)c1 | 0.377 | 0.48 | – |
| O=C1[C@H]2C3CCC(C3)N2C(=O)N1c1cccc(C(F)(F)F)c1 (some centres undefined) | 0.021 | 0.13 | Cmax [3]: 1.74 µM; Tmax [4]: 30 min; AUC(0-t) at 6 h [5]: 11.4 µM·h |
| CC12C[C@@H](O)C(C)(O1)[C@H]1C(=O)N(c3ccc(C#N)c(I)c3)C(=O)[C@H]12 (some centres undefined) | 0.00241 | 0.019 | Stability (Liver microsomes): 0.04 mmol/min/mg |
| CC12CCC(C)(O1)[C@H]1C(=O)N(c3ccc([N+](=O)[O-])c(C(F)(F)F)c3)C(=O)[C@H]12 | 0.017 | 0.011 | – |
| CC12CCC(C)(O1)[C@H]1C(=O)N(c3c(N)ccc4nccn34)C(=O)[C@H]12 | 0.027 | 0.07 | – |
| COc1cc(N2C(=O)[C@@H]3[C@H](C2=O)C2(C)CCC3(C)O2)ccc1-c1cnco1 | 0.012 | 0.02 | – |
| CC12CCC(C)(O1)[C@H]1C(=O)N(c3ccc([N+](=O)[O-])c4c(Br)cccc34)C(=O)[C@H]12 | 0.017 | 0.04 | – |
| CC(C)(C)OC(=O)N1CC2CC1[C@@H]1C(=O)N(c3ccc(C#N)c(C(F)(F)F)c3)C(=O)N21 (some centres undefined) | 0.04 | 0.774 | – |
| CC12CCC(C)(O1)[C@H]1C(=O)N(c3cccc(C(F)(F)F)c3)C(=O)[C@H]12 | 0.041 | 0.036 | – |
| CSc1cc(N2C(=O)[C@@H]3[C@H](C2=O)C2(C)CCC3(C)O2)ccc1C#N | 0.003 | 0.019 | – |
| CC12CCC(C)(O1)[C@H]1C(=O)N(c3c(N)ccc4ncsc34)C(=O)[C@H]12 | 0.017 | 0.12 | – |
| CC12CCC(C)(O1)[C@H]1C(=O)N(c3cnc(C#N)c(Cl)c3)C(=O)[C@H]12 | 0.004 | 0.038 | – |
| O=C1[C@@H]2C3CCC(O3)[C@@H]2C(=O)N1c1ccc(Br)c2ccccc12 | 0.053 | 0.67 | – |
| O=C1[C@@H]2C3CCC(O3)[C@@H]2C(=O)N1c1ccc(Cl)c([N+](=O)[O-])c1 | 0.692 | 1.15 | – |
| O=C1[C@@H]2C3CCC(O3)[C@@H]2C(=O)N1c1ccc(I)c(Cl)c1 | 0.221 | 0.35 | – |
| CC12CCC(C)(O1)[C@H]1C(=O)N(c3ccc(C#N)c(C(F)(F)F)c3)C(=O)[C@H]12 | 0.017 | 0.007 | – |
